Experiments:
[1] = molecular target: T1, human TOP1 (Homo sapiens, UniProt P11387); assay: TOP1 supercoiled plasmid DNA relaxation assay; format: biochemical; conditions: for TOP1 Inhibition 1 min: 1 min reaction; for TOP1 Inhibition 1 min / TOP1 Inhibition 3 min / TOP1 Inhibition 5 min: compounds at 100 μM, semiquantitative; for TOP1 Inhibition 3 min: 3 min reaction; for TOP1 Inhibition 5 min: 5 min reaction; for Persistence of TOP1 inhibition over the time course: in words
T1 construct: made in house; host or cells: Saccharomyces cerevisiae TOP1 null strain RS190, plasmid pHT143 (GAL promoter)
T1 sequence (P11387 1-765): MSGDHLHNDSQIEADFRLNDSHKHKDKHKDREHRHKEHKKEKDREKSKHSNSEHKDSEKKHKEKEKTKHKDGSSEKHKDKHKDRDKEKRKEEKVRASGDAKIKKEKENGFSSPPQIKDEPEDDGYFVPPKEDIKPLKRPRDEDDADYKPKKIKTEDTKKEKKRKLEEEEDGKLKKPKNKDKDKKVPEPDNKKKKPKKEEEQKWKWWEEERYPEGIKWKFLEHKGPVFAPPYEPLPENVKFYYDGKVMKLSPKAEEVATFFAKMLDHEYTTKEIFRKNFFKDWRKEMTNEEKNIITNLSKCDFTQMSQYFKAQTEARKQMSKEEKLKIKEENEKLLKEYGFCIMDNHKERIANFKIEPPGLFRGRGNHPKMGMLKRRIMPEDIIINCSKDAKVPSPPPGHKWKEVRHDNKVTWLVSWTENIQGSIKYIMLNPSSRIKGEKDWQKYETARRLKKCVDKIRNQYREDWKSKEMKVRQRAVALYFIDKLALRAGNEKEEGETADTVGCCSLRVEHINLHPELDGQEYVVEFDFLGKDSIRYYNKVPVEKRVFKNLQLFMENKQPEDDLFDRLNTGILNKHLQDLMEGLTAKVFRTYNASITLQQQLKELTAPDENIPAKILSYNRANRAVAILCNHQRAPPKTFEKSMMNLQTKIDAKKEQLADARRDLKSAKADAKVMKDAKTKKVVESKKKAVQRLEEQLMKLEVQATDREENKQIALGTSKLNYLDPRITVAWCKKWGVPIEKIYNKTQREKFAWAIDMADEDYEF
Description: The effect of the previously prepared compounds as TOP1 inhibitors was studied. A conventional supercoiled plasmid relaxation assay was used to determine if the newly fused tetrahydroindenoquinolines 8, more aromatic indenoquinolines 9, and carbonyl derivatives 10 with phosphine oxide substituents inhibit human TOP1 activity by converting supercoiled plasmid DNA to its relaxed form. In these experiments, compound samples were mixed with the enzyme followed by the addition of a supercoiled plasmid DNA substrate, and incubation continued for increasing time intervals (1 min, 3 min, and 5 min). The reaction was terminated by the addition of SDS. DNA relaxation products were then resolved by 1% agarose electrophoresis gel and visualized by gel red staining.
The yeast Saccaromyces cerevisiae TOP1 null strain RS190, which was used for the expression of recombinant human TOP1, was a kind gift from R. Sternglanz (State University of New York, Stony Brook, NY, USA). Plasmid pHT143, for the expression of recombinant TOP1 under the control of an inducible GAL promoter, was described. The plasmids pHT143 were transformed into the yeast S. cerevisiae strain RS190. The proteins were expressed and purified by affinity chromatography essentially as described. The protein concentrations were estimated from Coomassie blue-stained SDS/polyacrylamide gels by comparison to serial dilutions of bovine serum albumin (BSA).
TOP1 activity was assayed using a DNA relaxation assay by incubating 110 ng/mL of TOP1 with 0.5 µg of negatively supercoiled pUC18 in […] of reaction buffer (20 mM Tris HCl, 0.1 mM Na2EDTA, 10 mM MgCl2, […] acetylated BSA, and 150 mM KCl, pH 7.5). The effect of the synthesized phosphorylated derivatives 8, 9, and 10 on the TOP1 activity was measured by adding different concentrations of the compounds, at different time points, as indicated in the text. The reactions were performed at 37 °C stopped by the addition of 0.5% SDS after the indicated time intervals. The samples were protease-digested and electrophoresed in a horizontal 1% agarose gel in 1xTBE (50 mM Tris, 45 mM boric acid, 1 mM EDTA) at 25V during 18h. The gel was stained with gel red (BIOTIUM, 5 mg/mL), destained with water, and photographed under UV illumination. Since all drugs were dissolved in dimethyl sulfoxide (DMSO), a […] control sample containing the same DMSO concentration as the samples incubated with the drugs was included in all experiments.

[2] = system: MRC-5, lung fibroblast cells; assay: CCK-8 cytotoxicity assay, MRC5; format: cell-based, human; conditions: for IC50: Homo sapiens, MRC5 non-cancerous cells, 48h, CCK-8
Description: (§1) The cytotoxic effects of the newly synthesized diphenyl(tetrahydro-5H-indeno[2,1-c]quinolin-2-yl)phosphine oxides 8, diphenyl(7H-indeno[2,1-c]quinolin-2-yl)phosphine oxides 9, and diphenyl(7-oxo-7H-indeno[2,1-c]quinolin-2-yl)phosphine oxides 10 derivatives were studied against several human cell lines: A549 (carcinomic human alveolar basal epithelial cell), SKOV3 (human ovarian carcinoma), and HEK293 (human embryonic kidney). Furthermore, in order to analyze the selective cytotoxicity facing exclusively cancerous cell lines, toxicity against a non-cancerous cell line (MRC-5, lung fibroblast cells) was also evaluated (Table 3). The cell counting kit (CCK-8) assay was employed to assess the growth inhibition and cell proliferation inhibitory activities of the compounds, which are described in Table 3 as IC50 values.
(§2) Cells were cultured according to the supplier’s instructions. Cells were seeded in 96-well plates at a density of 1.5–3 × 10^3 cells per well and incubated overnight in 0.1 mL of media supplied with 10% Fetal Bovine Serum (Lonza) in a 5% CO2 incubator at 37 °C. On day 2, drugs were added and the samples were incubated for 48h. After treatment, 10 μL of the cell counting kit-8 was added into each well for an additional 2h incubation at 37 °C. The absorbance of each well was determined by an Automatic Elisa Reader System at 450 nm wavelength (deducting 620 nm). CPT was used as the positive control.

[3] = system: A549 (carcinomic human alveolar basal epithelial cell); assay: CCK-8 cytotoxicity assay, A549; format: cell-based; conditions: Homo sapiens, A549, 48 h, A549 cells, 48h, CCK-8
Description: as §1, §2

[4] = system: SKOV3 (human ovarian carcinoma); assay: CCK-8 cytotoxicity assay, SKOV3; format: cell-based; conditions: SK-OV-3, SKOV3 cells, 48h
Description: as §1, §2

[5] = system: HEK293 (human embryonic kidney); assay: CCK-8 cytotoxicity assay, HEK293; format: cell-based; conditions: HEK293 cells, 48h
Description: as §1, §2

[6] = molecular target: T1, human TOP1; assay: TOP1 supercoiled plasmid DNA relaxation assay; format: biochemical; conditions: for TOP1 Inhibition 30 min: 30 min reaction, compounds at 100 μM, semiquantitative

| SMILES | TOP1 Inhibition 1 min [1] | TOP1 Inhibition 3 min [1] | TOP1 Inhibition 5 min [1] | IC50 [2] | IC50 [3] | IC50 [4] | IC50 [5] | TOP1 Inhibition 30 min [6] | Persistence of TOP1 inhibition over the time course ([1]; 100 μM) | Cytotoxicity against MRC5 (in words) ([2]; non-cancerous cell line) | TOP1 relaxation activity after preincubation of compound with TOP1 ([1]; 100 μM, compound incubated with TOP1 for 15 min at 37 °C, then DNA added) | TOP1 relaxation activity after preincubation of compound with DNA ([6]; 100 μM, compound incubated with DNA for 15 min at 37 °C before TOP1 was added) |
| --- | --- | --- | --- | --- | --- | --- | --- | --- | --- | --- | --- | --- |
| O=P(c1ccccc1)(c1ccccc1)c1ccc2nc(-c3cccc4ccccc34)c3c(c2c1)-c1ccccc1C3 [Compound 9g, Diphenyl(6-(naphthalen-1-yl)-7H-indeno[2,1-c]quinolin-2-yl)phosphine oxide] | ++ | ++ | ++ | > 50 µM | > 50 µM | > 50 µM | > 50 µM | ++ | – | – | – | – |
| O=C1c2ccccc2-c2c1c(-c1ccc(C(F)(F)F)cc1)nc1ccc(P(=O)(c3ccccc3)c3ccccc3)cc21 [Compound 10b, Diphenyl(7-oxo-(6-(4-trifluoromethyl)phenyl)-7H-indeno[2,1-c]quinolin-2-yl)phosphine oxide] | ++ | ++ | ++ | > 50 µM | > 50 µM | > 50 µM | > 50 µM | ++ | – | – | – | – |
| O=C1c2ccccc2-c2c1c(-c1ccccc1)nc1ccc(P(=O)(c3ccccc3)c3ccccc3)cc21 [Compound 10a, Diphenyl(7-oxo-6-phenyl-7H-indeno[2,1-c]quinolin-2-yl)phosphine oxide] | + (weak inhibition) | ++ | ++ | > 50 µM | > 50 µM | > 50 µM | > 50 µM | ++ | – | – | – | – |
| CC[C@@]1(O)C(=O)OCc2c1cc1n(c2=O)Cc2cc3ccccc3nc2-1 [CPT, camptothecin, reference compound] | ++ | − (no inhibition) | − (no inhibition) | 0.11 ± 0.02 µM | 0.001 µM | 0.0055 µM | – | − (no inhibition) | short-term reversible effect | high toxicity | – | – |
| O=C1c2ccccc2-c2c1c(-c1cccc3ccccc13)nc1ccc(P(=O)(c3ccccc3)c3ccccc3)cc21 [Compound 10g, (6-(Naphth-1-yl)-7-oxo-7H-indeno[2,1-c]quinolin-2-yl)diphenylphosphine oxide] | + (weak inhibition) | + (weak inhibition) | + (weak inhibition) | > 50 µM | > 50 µM | > 50 µM | > 50 µM | + (weak inhibition) | – | – | – | – |
| O=P(c1ccccc1)(c1ccccc1)c1ccc2c(c1)C1c3ccccc3CC1C(c1cccc3ccccc13)N2 (stereo not drawn) [Compound 8g, Diphenyl(6-(naphthalen-1-yl)-6,6a,7,11b-tetrahydro-5H-indeno[2,1-c]quinolin-2-yl)phosphine oxide] | + (weak inhibition) | + (weak inhibition) | + (weak inhibition) | > 50 µM | > 50 µM | > 50 µM | > 50 µM | + (weak inhibition) | – | – | – | – |
| COc1cccc(-c2nc3ccc(P(=O)(c4ccccc4)c4ccccc4)cc3c3c2Cc2ccccc2-3)c1 [Compound 9i, Diphenyl(6-(3-methoxyphenyl)-7H-indeno[2,1-c]quinolin-2-yl)phosphine oxide] | ++ | ++ | ++ | > 50 µM | > 50 µM | > 50 µM | > 50 µM | ++ | – | – | – | – |
| O=P(c1ccccc1)(c1ccccc1)c1ccc2nc(-c3ccc(C(F)(F)F)cc3)c3c(c2c1)-c1ccccc1C3 [Compound 9b, Diphenyl(6-(4-(trifluoromethyl)phenyl)-7H-indeno[2,1-c]quinolin-2-yl)phosphine oxide] | +++ (strong inhibition) | +++ (strong inhibition) | +++ (strong inhibition) | > 50 µM | > 50 µM | > 50 µM | > 50 µM | +++ (strong inhibition) | – | – | the enzyme was inactive, not being able to relax the DNA | partially relaxing the DNA |
| O=P(c1ccccc1)(c1ccccc1)c1ccc2c(c1)C1c3ccccc3CC1C(c1ccccc1)N2 (stereo not drawn) [Compound 8a, Diphenyl(6-phenyl-6,6a,7,11b-tetrahydro-5H-indeno[2,1-c]quinolin-2-yl)phosphine oxide] | ++ | ++ | ++ | > 50 µM | 40.2 ± 7.13 µM | 6.35 ± 1.73 µM | – | ++ | more persistent inhibition | – | – | – |
